# Measured values as given in ChEMBL document CHEMBL1201862, “PubChem BioAssay data set” (2004).
#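 Exposure lasted 48 hours, with cells grown in 96-well plates and compounds tested at five concentrations. GI50 is the concentration that inhibits growth by half.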 Active and inactive are the calls of the source. Rule as the data show it: active = GI50 up to about 1.1 µM and inactive = higher.
# Experiments:
# Assay in all cases: inhibition of tumour cell growth, NCI panel, 48 h
# SK-MEL-2 = test system: SK-MEL-2
# RXF 393 = test system: RXF 393
# UACC-62 = test system: UACC-62
# HCC 2998 = test system: HCC 2998
# K562 = test system: K562
# RPMI-8226 = test system: RPMI-8226
# SW-620 = test system: SW-620
# SK-OV-3 = test system: SK-OV-3
# UACC-257 = test system: UACC-257
# NCI-H23 = test system: NCI-H23
# Hs-578T = test system: Hs-578T
# MDA-MB-435 = test system: MDA-MB-435
# LOX IMVI = test system: LOX IMVI
# IGROV-1 = test system: IGROV-1
# HCT-15 = test system: HCT-15
# MOLT-4 = test system: MOLT-4
# OVCAR-8 = test system: OVCAR-8
# KM12 = test system: KM12
# SK-MEL-28 = test system: SK-MEL-28
# SF-539 = test system: SF-539
# MCF7 = test system: MCF7
# HT-29 = test system: HT-29
# U-251 = test system: U-251
# OVCAR-4 = test system: OVCAR-4
# COLO 205 = test system: COLO 205
# MDA-N = test system: MDA-N
# HL-60 = test system: HL-60
# TK-10 = test system: TK-10
# T47D = test system: T47D
# M14 = test system: M14
# SN12C = test system: SN12C
# ACHN = test system: ACHN
# CAKI-1 = test system: CAKI-1
# HCT-116 = test system: HCT-116
# A549 = test system: A549
# SF-295 = test system: SF-295
# DU-145 = test system: DU-145
# A498 = test system: A498
# SNB-75 = test system: SNB-75
# Malme-3M = test system: Malme-3M
# NCI-H460 = test system: NCI-H460
# OVCAR-5 = test system: OVCAR-5
# NCI/ADR-RES = test system: NCI/ADR-RES
# SK-MEL-5 = test system: SK-MEL-5
# UO-31 = test system: UO-31
# HOP-92 = test system: HOP-92
# 786-0 = test system: 786-0
# MDA-MB-231 = test system: MDA-MB-231
# NCI-H226 = test system: NCI-H226
# EKVX = test system: EKVX
# BT-549 = test system: BT-549
# SNB-19 = test system: SNB-19
# PC-3 = test system: PC-3
# SR = test system: SR
# HOP-62 = test system: HOP-62
# SF-268 = test system: SF-268
# OVCAR-3 = test system: OVCAR-3
# NCI-H522 = test system: NCI-H522
# CCRF-CEM = test system: CCRF-CEM
smiles,measurement,setting,value
Clc1ccc(-c2nn3c(COc4cccc(OCc5nnc6sc(-c7ccc(Cl)cc7)nn56)c4)nnc3s2)cc1,GI50,SK-MEL-2,58.5 µM (inactive)
same,GI50,RXF 393,16.1 µM (inactive)
same,GI50,UACC-62,23.2 µM (inactive)
same,GI50,HCC 2998,32.1 µM (inactive)
same,GI50,K562,24.4 µM (inactive)
same,GI50,RPMI-8226,22.1 µM (inactive)
same,GI50,SW-620,25.9 µM (inactive)
same,GI50,SK-OV-3,51.3 µM (inactive)
same,GI50,UACC-257,26.1 µM (inactive)
same,GI50,NCI-H23,22.3 µM (inactive)
same,GI50,Hs-578T,59 µM (inactive)
same,GI50,MDA-MB-435,19.4 µM (inactive)
same,GI50,LOX IMVI,26.3 µM (inactive)
same,GI50,IGROV-1,26.8 µM (inactive)
same,GI50,HCT-15,27.5 µM
same,GI50,MOLT-4,14.3 µM (inactive)
same,GI50,OVCAR-8,28.9 µM (inactive)
same,GI50,KM12,29.5 µM (inactive)
same,GI50,SK-MEL-28,7.78 µM (inactive)
same,GI50,SF-539,26.9 µM (inactive)
same,GI50,MCF7,14.1 µM (inactive)
same,GI50,HT-29,24.5 µM (inactive)
same,GI50,U-251,24.3 µM (inactive)
same,GI50,OVCAR-4,12.9 µM (inactive)
same,GI50,COLO 205,29.2 µM (inactive)
same,GI50,MDA-N,15.7 µM (inactive)
same,GI50,HL-60,21.5 µM (inactive)
same,GI50,TK-10,36.8 µM (inactive)
same,GI50,T47D,17.3 µM (inactive)
same,GI50,M14,27.4 µM (inactive)
same,GI50,SN12C,12.6 µM (inactive)
same,GI50,ACHN,22.4 µM (inactive)
same,GI50,CAKI-1,22 µM (inactive)
same,GI50,HCT-116,18.6 µM (inactive)
same,GI50,A549,25.8 µM (inactive)
same,GI50,SF-295,31.3 µM (inactive)
same,GI50,DU-145,25.4 µM (inactive)
same,GI50,A498,15.7 µM (inactive)
same,GI50,SNB-75,23 µM (inactive)
same,GI50,Malme-3M,19.2 µM (inactive)
same,GI50,NCI-H460,31 µM (inactive)
same,GI50,OVCAR-5,28.6 µM (inactive)
same,GI50,NCI/ADR-RES,36.9 µM (inactive)
same,GI50,SK-MEL-5,15.2 µM (inactive)
same,GI50,UO-31,19.5 µM (inactive)
same,GI50,HOP-92,30.1 µM (inactive)
same,GI50,786-0,15.1 µM (inactive)
same,GI50,MDA-MB-231,21.2 µM (inactive)
same,GI50,NCI-H226,> 100 µM (inactive)
same,GI50,EKVX,21.3 µM (inactive)
same,GI50,BT-549,30.7 µM (inactive)
same,GI50,SNB-19,24.6 µM (inactive)
same,GI50,PC-3,33.1 µM (inactive)
same,GI50,SR,11.2 µM (inactive)
same,GI50,HOP-62,56.6 µM (inactive)
same,GI50,SF-268,21.7 µM (inactive)
same,GI50,OVCAR-3,6.78 µM (inactive)
same,GI50,NCI-H522,22.8 µM (inactive)
N#C[C@@H](c1nc2ccccc2s1)c1ncccc1[N+](=O)[O-],GI50,SK-MEL-2,4.12 µM (inactive)
same,GI50,RXF 393,5.87 µM (inactive)
same,GI50,UACC-62,3.21 µM (inactive)
same,GI50,HCC 2998,10.6 µM (inactive)
same,GI50,K562,> 10 µM (inactive)
same,GI50,RPMI-8226,4.9 µM (inactive)
same,GI50,CCRF-CEM,> 10 µM (inactive)
same,GI50,SW-620,> 10 µM (inactive)
same,GI50,SK-OV-3,16.6 µM (inactive)
same,GI50,UACC-257,2.12 µM (inactive)
same,GI50,NCI-H23,3.7 µM (inactive)
same,GI50,Hs-578T,5.55 µM (inactive)
same,GI50,MDA-MB-435,13.4 µM (inactive)
same,GI50,LOX IMVI,4.97 µM (inactive)
same,GI50,IGROV-1,5.07 µM (inactive)
same,GI50,HCT-15,7.13 µM
same,GI50,MOLT-4,9.12 µM (inactive)
same,GI50,OVCAR-8,9.06 µM (inactive)
same,GI50,KM12,10.6 µM (inactive)
same,GI50,SK-MEL-28,> 10 µM (inactive)
same,GI50,MCF7,5.11 µM (inactive)
same,GI50,HT-29,8.3 µM (inactive)
same,GI50,U-251,3.48 µM (inactive)
same,GI50,OVCAR-4,7.91 µM (inactive)
same,GI50,COLO 205,4.31 µM (inactive)
same,GI50,MDA-N,7.46 µM (inactive)
same,GI50,HL-60,> 10 µM (inactive)
same,GI50,TK-10,4.79 µM (inactive)
same,GI50,T47D,4.18 µM (inactive)
same,GI50,M14,8.22 µM (inactive)
same,GI50,SN12C,4.82 µM (inactive)
same,GI50,ACHN,6.07 µM (inactive)
same,GI50,CAKI-1,19 µM (inactive)
same,GI50,HCT-116,5.6 µM (inactive)
same,GI50,A549,4.4 µM (inactive)
same,GI50,SF-295,4.1 µM (inactive)
same,GI50,DU-145,6.34 µM (inactive)
same,GI50,A498,10.8 µM (inactive)
same,GI50,SNB-75,13.9 µM (inactive)
same,GI50,Malme-3M,2.87 µM (inactive)
same,GI50,NCI-H460,5.62 µM (inactive)
same,GI50,OVCAR-5,11.9 µM (inactive)
same,GI50,NCI/ADR-RES,6.46 µM (inactive)
same,GI50,SK-MEL-5,3.24 µM (inactive)
same,GI50,UO-31,3.99 µM (inactive)
same,GI50,HOP-92,1.32 µM (inactive)
same,GI50,786-0,6.19 µM (inactive)
same,GI50,MDA-MB-231,7.83 µM (inactive)
same,GI50,NCI-H226,5.55 µM (inactive)
same,GI50,EKVX,5.89 µM (inactive)
same,GI50,BT-549,5 µM (inactive)
same,GI50,SNB-19,3.94 µM (inactive)
same,GI50,PC-3,5.16 µM (inactive)
same,GI50,SR,4.67 µM (inactive)
same,GI50,HOP-62,10.4 µM (inactive)
same,GI50,SF-268,8.11 µM (inactive)
same,GI50,OVCAR-3,2.48 µM (inactive)
same,GI50,NCI-H522,2.51 µM (inactive)
